Measurements taken from the NIST ThermoML archive (doi:10.1016/j.jct.2008.01.023).

Key:
[1] = xn = mol fraction of the nth substance listed; conditions: 298.15 K, 101 kPa, Liquid
[2] = refractive index (Na D-line) (dimensionless); xn = mol fraction of the nth substance listed; conditions: 298.15 K, 101 kPa, Liquid, Standard Abbe refractometry
[3] = 298.15 K; 101.33 kPa; Liquid
[4] = refractive index (Na D-line) (dimensionless); conditions: 298.15 K; 101.33 kPa; Liquid; Standard Abbe refractometry

CCCCn1cc[n+](C)c1.COS(=O)(=O)[O-] [1-butyl-3-methylimidazolium methyl sulfate] + C[N+](=O)[O-]
Conditions | mass density, [1] [kg/m3] | refractive index, [2]
x1 = 0.0398 | 1146.67 | 1.3953
x1 = 0.1021 | 1161.66 | 1.4128
x1 = 0.1433 | 1168.87 | 1.4218
x1 = 0.1988 | 1176.21 | 1.4316
x1 = 0.2444 | 1180.95 | 1.4382
x1 = 0.2998 | 1185.58 | 1.4449
x1 = 0.3979 | 1191.69 | 1.4541
x1 = 0.4786 | 1195.47 | 1.4596
x1 = 0.5652 | 1198.52 | 1.4648
x1 = 0.7127 | 1202.66 | 1.4714
x1 = 0.8212 | 1204.74 | 1.4748
x1 = 0.8546 | 1205.4 | 1.4758

CCOCCOCCO [3,6-dioxa-1-octanol]
Conditions | mass density [kg/m3] | refractive index
[3] | 983.68 | –
[4] | – | 1.4253

CCOCCOCCO [3,6-dioxa-1-octanol] + CCCCn1cc[n+](C)c1.F[B-](F)(F)F
Conditions | mass density, [1] [kg/m3] | refractive index, [2]
x2 = 0.0544 | 1003.36 | 1.4268
x2 = 0.1016 | 1018.2 | 1.4274
x2 = 0.1492 | 1032.87 | 1.4277
x2 = 0.1941 | 1045.1 | 1.4278
x2 = 0.2686 | 1065.22 | 1.4278
x2 = 0.3215 | 1078.37 | 1.4277
x2 = 0.3932 | 1094.93 | 1.4273
x2 = 0.5108 | 1119.82 | 1.4265
x2 = 0.6016 | 1137.49 | 1.4257
x2 = 0.6657 | 1149.16 | 1.425
x2 = 0.6998 | 1155.07 | 1.4247
x2 = 0.8304 | 1176.5 | 1.4235
x2 = 0.9551 | 1195.04 | 1.4223

CCCCn1cc[n+](C)c1.COS(=O)(=O)[O-] [1-butyl-3-methylimidazolium methyl sulfate] + OCCO
Conditions | mass density, [1] [kg/m3] | refractive index, [2]
x1 = 0.0341 | 1195.09 | 1.4334
x1 = 0.0854 | 1115.82 | 1.4373
x1 = 0.1079 | 1172.89 | 1.439
x1 = 0.1946 | 1123.61 | 1.4449
x1 = 0.2446 | 1170.78 | 1.4479
x1 = 0.2999 | 1126.01 | 1.4511
x1 = 0.353 | 1164.56 | 1.454
x1 = 0.4399 | 1138.05 | 1.4582
x1 = 0.5061 | 1150.15 | 1.4616
x1 = 0.5299 | 1188.48 | 1.4625
x1 = 0.636 | 1143.98 | 1.4672
x1 = 0.717 | 1155.76 | 1.4703
x1 = 0.8055 | 1182.08 | 1.4735
x1 = 0.907 | 1201.87 | 1.4768

C[N+](=O)[O-] [nitromethane] + CCCCn1cc[n+](C)c1.F[B-](F)(F)F
Conditions | mass density, [1] [kg/m3] | refractive index, [2]
x2 = 0.0512 | 1148.18 | 1.3889
x2 = 0.0991 | 1158.64 | 1.3952
x2 = 0.1392 | 1165.19 | 1.399
x2 = 0.2026 | 1173.12 | 1.4038
x2 = 0.2986 | 1181.43 | 1.4089
x2 = 0.3565 | 1185.14 | 1.4112
x2 = 0.3972 | 1187.27 | 1.4125
x2 = 0.4553 | 1189.89 | 1.4142
x2 = 0.5231 | 1192.3 | 1.4158
x2 = 0.5949 | 1194.48 | 1.4172
x2 = 0.6863 | 1196.69 | 1.4188
x2 = 0.8073 | 1198.86 | 1.4202
x2 = 0.8634 | 1199.69 | 1.4207

CCCCn1cc[n+](C)c1.F[B-](F)(F)F [1-butyl-3-methylimidazolium tetrafluoroborate] + CCO
Conditions | mass density, [1] [kg/m3] | refractive index, [2]
x1 = 0.0517 | 850.45 | 1.3703
x1 = 0.0918 | 891.63 | 1.3767
x1 = 0.1995 | 976.13 | 1.3898
x1 = 0.2495 | 1007.41 | 1.3943
x1 = 0.2518 | 1042.9 | 1.3946
x1 = 0.3228 | 1081.97 | 1.3998
x1 = 0.4219 | 1117.11 | 1.4058
x1 = 0.5356 | 1138.94 | 1.4105
x1 = 0.6244 | 1156.56 | 1.4137
x1 = 0.709 | 1177.74 | 1.4161
x1 = 0.8295 | 1192.74 | 1.4188

C[N+](=O)[O-] [nitromethane]
Conditions | mass density [kg/m3] | refractive index
[3] | 1131.17 | –
[4] | – | 1.3796
